Tests used:
[1] = target: human serum albumin (HSA) (Homo sapiens, UniProt P02768); test: Weak affinity chromatography of steroids on HSA column; type: binding; conditions: for Kd: Column D, HSA 99% purity column; for k′ (capacity factor), Column D: HSA 99% purity, 118 mg/g silica, 20° C.
Protocol: (§1) Four columns were prepared, a blank diol-silica column (column A) having no binding ligands and 3 columns (columns B, C, D) loaded with albumin as the binding ligand. Column B was a silica packed column (7 μm, 300 Å porosity) loaded with 96% purity bovine serum albumin (BSA) at a concentration of 66 mg of BSA per gram of silica. Column C was a silica packed column (7 μm, 300 Å porosity) loaded with 99% purity bovine serum albumin (BSA) at a concentration of 77 mg of BSA per gram of silica. Column D was a silica packed column (7 μm, 300 Å porosity) loaded with 99% purity human serum albumin (HSA) at a concentration of 118 mg of HSA per gram of silica. All four column dimensions were 2.1×50 mm stainless steel. Immobilization of the ligands was performed batchwise with periodate activation. 0.5 g of diol-silica was used with 5 ml of H2O added. The silica was sonicated for 2 minutes, and 0.5 g of periodic acid was added to convert the diol groups to aldehyde-groups. After 2 hours of mixing, the aldehyde-silica was washed with 100 mM phosphate, pH 7.0. 5 ml of the respective ligand in 100 mM phosphate buffer, pH 7.0, was prepared. Ligand concentration was 10 mg/ml. 250 μl NaCNBH3, concentration of 0.1 mg/ml, was added. Coupling time was 40 hours at room temperature (22° C.) on mixing table.
(§2) The system comprised the columns used in an Agilent 1200-LC-MS system. The steroids were all dissolved in ethanol at a concentration of 0.05 μg/μl. 2 μl samples were run in duplicate. Solvent buffers used included phosphate buffered saline (PBS) at pH 7.4 and 5 mM ammonium-acetate (Am-Ac) salt, pH 6.9. Column temperature was 20° C. with a flow rate of 0.400 ml/min. Detection included the use of UV diode-array detector (DAD) at 237 nm.
(§3) The columns were tested with the PBS buffer and the Am-Ac listed above. The capacity factor (k′) and dissociation constant (Kd) were determined as set forth in U.S. Pat. No. 4,879,247 issued on Nov. 7, 1989 to Sten Ohlson, which is hereby incorporated by reference in its entirety.

[2] = target: bovine serum albumin (BSA) (Bos taurus, UniProt P02769); test: Weak affinity chromatography of steroids on BSA columns (columns B, C); type: binding; conditions: for k′ (capacity factor), Column B: 66 mg/g silica; for k′ (capacity factor), Column B / k′ (capacity factor), Column C: 20° C.; for k′ (capacity factor), Column C: 77 mg/g silica
bovine serum albumin (BSA), sequence (P02769 25-607): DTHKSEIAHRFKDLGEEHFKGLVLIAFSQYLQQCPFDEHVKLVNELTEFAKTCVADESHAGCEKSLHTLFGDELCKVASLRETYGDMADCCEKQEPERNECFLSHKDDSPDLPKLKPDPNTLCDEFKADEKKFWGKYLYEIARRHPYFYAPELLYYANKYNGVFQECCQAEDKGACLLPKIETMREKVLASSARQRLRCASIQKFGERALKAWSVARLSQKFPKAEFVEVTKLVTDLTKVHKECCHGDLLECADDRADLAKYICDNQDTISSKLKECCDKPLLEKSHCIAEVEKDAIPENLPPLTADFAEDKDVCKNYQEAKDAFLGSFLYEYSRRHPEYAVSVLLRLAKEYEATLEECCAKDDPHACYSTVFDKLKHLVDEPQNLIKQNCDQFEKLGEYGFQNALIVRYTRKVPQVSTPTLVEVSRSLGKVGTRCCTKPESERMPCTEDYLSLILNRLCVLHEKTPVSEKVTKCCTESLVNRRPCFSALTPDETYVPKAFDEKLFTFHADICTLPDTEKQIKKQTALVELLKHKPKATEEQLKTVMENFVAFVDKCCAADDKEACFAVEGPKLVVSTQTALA
Protocol: as §1, §2, §3

[3] = Column B, 5 mM Am-Ac buffer pH 6.9, BSA 96% purity
[4] = Column B, PBS buffer pH 7.4, BSA 96% purity
[5] = Column C, 5 mM Am-Ac buffer pH 6.9, BSA 99% purity
[6] = Column C, PBS buffer pH 7.4, BSA 99% purity

human serum albumin (HSA), sequence (P02768 25-609): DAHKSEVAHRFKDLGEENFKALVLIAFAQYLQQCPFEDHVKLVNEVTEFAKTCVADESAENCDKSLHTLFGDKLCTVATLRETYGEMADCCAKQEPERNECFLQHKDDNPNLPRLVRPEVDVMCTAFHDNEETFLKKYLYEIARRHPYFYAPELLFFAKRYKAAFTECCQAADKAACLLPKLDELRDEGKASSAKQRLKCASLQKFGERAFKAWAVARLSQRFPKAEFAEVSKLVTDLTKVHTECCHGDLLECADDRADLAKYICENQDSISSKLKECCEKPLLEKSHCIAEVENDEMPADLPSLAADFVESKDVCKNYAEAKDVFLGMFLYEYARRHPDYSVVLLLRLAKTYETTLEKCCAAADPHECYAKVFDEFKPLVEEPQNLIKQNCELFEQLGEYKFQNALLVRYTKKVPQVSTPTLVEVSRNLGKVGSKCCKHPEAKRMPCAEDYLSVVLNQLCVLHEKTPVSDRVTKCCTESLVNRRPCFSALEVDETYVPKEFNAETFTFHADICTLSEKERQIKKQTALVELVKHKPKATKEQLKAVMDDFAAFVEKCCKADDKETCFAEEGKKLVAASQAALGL

| k′ (capacity factor), Column D ([1]; 5 mM Am-Ac buffer pH 6.9) | k′ (capacity factor), Column D ([1]; PBS buffer pH 7.4) | k′ (capacity factor), Column B ([2]; 5 mM Am-Ac buffer pH 6.9, BSA 96% purity) | k′ (capacity factor), Column C ([2]; 5 mM Am-Ac buffer pH 6.9, BSA 99% purity) | k′ (capacity factor), Column B ([2]; PBS buffer pH 7.4, BSA 96% purity) | k′ (capacity factor), Column C ([2]; PBS buffer pH 7.4, BSA 99% purity) | SMILES | Kd ([1]; 5 mM Am-Ac buffer pH 6.9) | Kd ([1]; PBS buffer pH 7.4) | Kd [2, 3] | Kd [2, 4] | Kd [2, 5] | Kd [2, 6] |
| --- | --- | --- | --- | --- | --- | --- | --- | --- | --- | --- | --- | --- |
|  |  |  |  |  |  | C[C@]12C=CC(=O)C=C1CC[C@@H]1[C@@H]2[C@@H](O)C[C@@]2(C)[C@H]1CC[C@]2(O)C(=O)CO [Prednisolone, prednisolone] | 596 µM | 602 µM | 257 µM | 230 µM | 227 µM | 216 µM |
| 1.78 | 1.74 | 1.01 | 1.17 | 1.07 | 1.23 | C[C@]12C=CC(=O)C=C1CC[C@@H]1[C@@H]2C(=O)C[C@@]2(C)[C@H]1CC[C@]2(O)C(=O)CO [Prednisone, prednisone] | 523 µM | 516 µM | 288 µM | 274 µM | 260 µM | 250 µM |

From patent publication US9448243B2, “Weak affinity chromatography” (priority 2013, dated 2016)
